Results on 1 compound are retold here after paper PMC5998028, “Synthesis, antimicrobial activity and conformational analysis of the class IIa bacteriocin pediocin PA-1 and analogs thereof” (Scientific Reports, 2018).

SMILES strings stand for the structures.

This data set is described as follows: Stability of the peptide in solution (storage, handling, assays). The following applies: qualitative, relative to Met31-containing pediocin PA-1 3c.

Regarding `CC[C@H](C)[C@H](NC(=O)[C@H](CS)NC(=O)[C@@H](NC(=O)[C@@H](NC(=O)[C@H](C)NC(=O)[C@H](CCCCN)NC(=O)CNC(=O)[C@H](Cc1c[nH]c2ccccc12)NC(=O)[C@H](CC(=O)O)NC(=O)[C@@H](NC(=O)[C@H](CO)NC(=O)[C@H](CS)NC(=O)[C@H](CO)NC(=O)[C@H](Cc1c[nH]cn1)NC(=O)[C@H](CCCCN)NC(=O)CNC(=O)[C@H](CS)NC(=O)[C@@H](NC(=O)[C@@H](NC(=O)CNC(=O)[C@H](CC(N)=O)NC(=O)CNC(=O)[C@H](Cc1ccc(O)cc1)NC(=O)[C@H](Cc1ccc(O)cc1)NC(=O)[C@@H](N)CCCCN)C(C)C)[C@@H](C)O)C(C)C)[C@@H](C)O)[C@@H](C)O)C(=O)N[C@H](C(=O)N[C@@H](CC(N)=O)C(=O)N[C@@H](CC(N)=O)C(=O)NCC(=O)N[C@@H](C)C(=O)N[C@@H](CC(C)C)C(=O)N[C@@H](C)C(=O)N[C@@H](Cc1c[nH]c2ccccc12)C(=O)N[C@@H](C)C(=O)N[C@H](C(=O)NCC(=O)NCC(=O)N[C@@H](Cc1c[nH]cn1)C(=O)N[C@@H](CCC(N)=O)C(=O)NCC(=O)N[C@@H](CC(N)=O)C(=O)N[C@@H](Cc1c[nH]cn1)C(=O)N[C@@H](CCCCN)C(=O)N[C@@H](CS)C(=O)O)[C@@H](C)O)[C@@H](C)CC` [compound 4], the “molecular stability / stability in solution during storage, handling and assays” value is recorded as “significantly greater”.
